Test results reported in patent US11613558B2, “Peptides and pharmaceutical compositions for treating eye diseases” (Yuyu Pharma, Inc., priority 2018, dated 2023).
Where a name gives a salt, the structure may show the parent alone. Numbered stars: 1 amine (or outer) side, 2 acyl side, 3 side chain; on linkers, the order of the positions; unused ones are H or OH. Square brackets hold non-standard residues; d marks the D form. Ends that are not written are not given here. Peptide text beside a SMILES is read from it. Pro(trans-4-F) = O=C(O)[C@@H]1C[C@@H](F)CN1; X2 = C[C@@H]1CC[C@@H](C(=O)[*:2])N1[*:1]; Pro(4,4-Me2) = CC1(C)CN[C@H](C(=O)O)C1; d(cisHyp) = O=C(O)[C@H]1C[C@@H](O)CN1; Pro(4-oxo) = O=C1CN[C@H](C(=O)O)C1; cisHyp = O=C(O)[C@@H]1C[C@H](O)CN1; X1 = O=C([C@H](CCCCO)N[*:1])[*:2]; Hyp = O=C(O)[C@@H]1C[C@@H](O)CN1; dHyp = O=C(O)[C@H]1C[C@H](O)CN1; pGlu = O=C1CC[C@@H](C(=O)O)N1

Columns and labels:
[1] = system: rats with dry eye syndrome (extraorbital lacrimal gland excision, ELGE); assay: Amount of tear secretion (Schirmer test, cobalt chloride paper) in ELGE rats with dry eye syndrome; assay type: in vivo, rat; settings: for Tear Volumes, Day 7 / Tear Volumes, Day 14: ELGE rats, 3 mg/ml, 5 μl/eye twice daily; for Tear Volumes, Day 7: day 7 of administration; for Tear Volumes, Day 14: day 14 of administration; for Change in amount of tear secretion as compared with the ELGE control group: study of YDE-029 to YDE-043, 3% solution as printed, after administration for 14 days
In short: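 Dry eye induced in male Sprague-Dawley rats by extraorbital lacrimal gland excision; sham-operated controls. From 7 days post-surgery, 3 mg/ml test compounds in saline given topically at 5 μl/eye twice daily for 14 days. Tear secretion measured on days 7 and 14 as wetted length of cobalt chloride paper held 60 s in the lateral canthus.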

[2] = system: cornea of rats with dry eye syndrome (ELGE); assay: Corneal permeability of fluorescent dye (corneal damage) in ELGE rats with dry eye syndrome; assay type: in vivo, rat; settings: 5 μl/eye twice daily, day 14
In short: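 Dry eye induced in male Sprague-Dawley rats by extraorbital lacrimal gland excision; from day 7, 3 mg/ml compound in saline given at 5 μl/eye twice daily. After 14 doses, rats anaesthetized (Zolethyl 25 mg/kg ip), 1% fluorescein applied 1 h, and corneal staining read 12-24 h later by slit-lamp under blue light.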

[3] = Stability in aqueous solution under long-term storage conditions (related substances); assay type: physicochemical; settings: 25° C., 75% RH
In short: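 Test substances dissolved in water at 1 mg/ml, sealed in glass vials and held at 25° C./75% RH. Related substances measured at 1, 2, 4, 8 and 12 weeks.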

[4] = system: human primary corneal epithelial cells; assay: Cell growth rate of human primary corneal epithelial cells (CellTiter-Glo); assay type: cell-based; settings: 48 hours and 72 hours
Experimental: In order to confirm whether the YDE derivatives could recover corneal damage, the cellular growth rate of human primary corneal epithelial cells was checked.
Specifically, primary corneal epithelial cells (ATCC, ATCC PCS-700-010) were seeded on a 96-well culture plate (Perkin Elmer, 6005680) containing the Corneal Epithelial Cell Basal Medium (ATCC, ATCC PCS-700-030) in the Corneal Epithelial Cell Growth Kit (ATCC, ATCC PCS-700-040) in an amount of 5×10^3 cells per well, which was then cultured for 24 hours under the conditions of 37° C. and 5% CO2.
YDE-001 to YDE-075 were each dissolved in 100% DMSO (Sigma, D2660) to a concentration of 10 mM, which was then diluted with 100% DMSO to a concentration of the compound of 6, 1.9, 0.6, 0.2, 0.06, 0.02, 0.006, and 0.002 mM. 20 μl of the diluted YDE derivative was added to a 96-well microplate (Greiner Bio-One, 651201) containing 380 μl of the Corneal Epithelial Cell Basal Medium such that the concentration of DMSO was diluted to 5%.
After 24 hours, 20 μl of each of the YDE derivatives diluted in the 96-well microplate was added to the 96-well culture plate containing the cells. As a control group, hEGF (Sigma, E9644) was treated at the same concentration as the YDE derivatives. The cells treated with the YDE-derivatives or hEGF were cultured for 48 hours and 72 hours under the conditions of 37° C. and 5% CO2 (FIGS. 18 to 25).
The cultured cells were treated with the CellTiter-Glo luminescent reagent (Promega, G7573) according to the manufacturer's instructions and reacted for 30 minutes at room temperature. Thereafter, the fluorescent signal (or luminescence signal) was checked using an Envision 2014 Multi-label plate reader. The measured values were normalized using a vehicle control (100% proliferation cell).

[5] = Table 4, study of YDE-001 to YDE-028
[6] = Table 5, study of YDE-029 to YDE-043
[7] = Table 7, study of YDE-029 to YDE-043, 3 mg/ml

Amount of related substances (after 12 weeks) [3] [%]	Compound	Tear Volumes, Day 7 [1, 5] [mm^3]	Tear Volumes, Day 14 [1, 5] [mm^3]	Permeability of fluorescent dye ([2]; Table 6, study of YDE-001 to YDE-028, 3 mg/ml) [%]	Cell proliferation rate (in words) [4]	Tear Volumes, Day 7 [1, 6] [mm^3]	Tear Volumes, Day 14 [1, 6] [mm^3]	Change in amount of tear secretion as compared with the ELGE control group [1]	Permeability of fluorescent dye [2, 7] [%]
3.83	CC(C)C[C@H](NC(=O)CNC(=O)[C@H](CC(C)C)NC(=O)[C@H](CCC(N)=O)NC(=O)CNC(=O)[C@@H]1C[C@@H](O)CN1)C(=O)N[C@@H](C)C(=O)NCC(=O)N1CCC[C@H]1C(=O)N[C@@H](CCCCN)C(=O)O [YDE-011, H-Hyp-Gly-Gln-Leu-Gly-Leu-Ala-Gly-Pro-Lys-OH AcOH salt] (H-[Hyp]GQLGLAGPK-OH)	4.22 ± 1.45	6.16 ± 2.16	18.11 ± 11.61	high cell proliferation rate	–	–	–	–
5.6	CC(C)C[C@H](NC(=O)CNC(=O)[C@H](CC(C)C)NC(=O)[C@H](CCC(N)=O)NC(=O)CNC(=O)[C@@H]1C[C@@H](O)CN1)C(=O)N[C@@H](C)C(=O)NCC(=O)N1CCC[C@H]1C(=O)N[C@@H](CCCCO)C(=O)O [YDE-033] (H-[Hyp]GQLGLAGP[X1]-OH)	–	–	–	–	4.99 ± 1.20	4.54 ± 1.16	did not show any significant changes	60.55 ± 21.22
3.89	CC(C)C[C@H](NC(=O)CNC(=O)[C@H](CC(C)C)NC(=O)[C@H](CCC(N)=O)NC(=O)CNC(=O)[C@@H]1CC(=O)CN1)C(=O)N[C@@H](C)C(=O)NCC(=O)N1CCC[C@H]1C(=O)N[C@@H](CCCCN)C(=O)O [YDE-035] (H-[Pro(4-oxo)]GQLGLAGPK-OH)	–	–	–	–	4.96 ± 0.96	6.25 ± 0.79	–	27.62 ± 6.51
3.58	CC(C)C[C@H](NC(=O)CNC(=O)[C@H](CC(C)C)NC(=O)[C@H](CCC(N)=O)NC(=O)CNC(=O)[C@@H]1CC(C)(C)CN1)C(=O)N[C@@H](C)C(=O)NCC(=O)N1CCC[C@H]1C(=O)N[C@@H](CCCCN)C(=O)O [YDE-040] (H-[Pro(4,4-Me2)]GQLGLAGPK-OH)	–	–	–	–	5.77 ± 1.05	8.63 ± 1.53	–	18.33 ± 9.41
3.04	CC(C)C[C@H](NC(=O)CNC(=O)[C@H](CC(C)C)NC(=O)[C@H](CCC(N)=O)NC(=O)CNC(=O)[C@@H]1C[C@@H](O)CN1)C(=O)N[C@@H](C)C(=O)O [YDE-041] (H-[Hyp]GQLGLA-OH)	–	–	–	–	5.01 ± 1.26	6.25 ± 2.15	did not show any significant changes	46.38 ± 26.65
3.43	CC(C)C[C@H](NC(=O)[C@H](CCC(N)=O)NC(=O)CNC(=O)[C@@H]1C[C@@H](O)CN1)C(=O)NCC(=O)O [YDE-043] (H-[Hyp]GQLG-OH)	–	–	–	–	5.90 ± 1.06	8.16 ± 1.42	–	19.04 ± 7.36
2.88	PGQLGLAGPK [YDE-037]	–	–	–	–	4.98 ± 0.66	5.80 ± 0.90	–	36.30 ± 9.75

The remaining lines, values behind:

Compound	Amount of related substances (after 12 weeks) [3] [%]	Tear Volumes, Day 7 [1, 5] [mm^3]	Tear Volumes, Day 14 [1, 5] [mm^3]	Permeability of fluorescent dye ([2]; Table 6, study of YDE-001 to YDE-028, 3 mg/ml) [%]	Cell proliferation rate (in words) [4]	Tear Volumes, Day 7 [1, 6] [mm^3]	Tear Volumes, Day 14 [1, 6] [mm^3]	Change in amount of tear secretion as compared with the ELGE control group [1]	Permeability of fluorescent dye [2, 7] [%]
CC(C)C[C@H](NC(=O)CNC(=O)[C@H](CC(C)C)NC(=O)[C@H](CCC(N)=O)NC(=O)CNC(=O)[C@@H]1C[C@H](O)CN1)C(=O)N[C@@H](C)C(=O)NCC(=O)N1CCC[C@H]1C(=O)N[C@@H](CCCCN)C(=O)O [YDE-034] (H-[cisHyp]GQLGLAGPK-OH)	1.25	–	–	–	–	6.16 ± 1.01	6.43 ± 1.86	did not show any significant changes	32.17 ± 12.94
CC(C)C[C@H](NC(=O)CNC(=O)[C@H](CC(C)C)NC(=O)[C@H](CCC(N)=O)NC(=O)CNC(=O)[C@@H]1CCC(=O)N1)C(=O)N[C@@H](C)C(=O)NCC(=O)N1CCC[C@H]1C(=O)N[C@@H](CCCCN)C(=O)O [YDE-036] ([pGlu]GQLGLAGPK-OH)	8.77	–	–	–	–	4.95 ± 1.05	5.13 ± 1.03	did not show any significant changes	57.87 ± 22.91
CC(C)C[C@H](NC(=O)CNC(=O)[C@H](CC(C)C)NC(=O)[C@H](CCC(N)=O)NC(=O)CNC(=O)[C@@H]1C[C@@H](F)CN1)C(=O)N[C@@H](C)C(=O)NCC(=O)N1CCC[C@H]1C(=O)N[C@@H](CCCCN)C(=O)O [YDE-039] (H-[Pro(trans-4-F)]GQLGLAGPK-OH)	2.19	–	–	–	–	6.04 ± 1.01	6.44 ± 1.96	–	29.94 ± 11.40
CC(C)C[C@H](NC(=O)CNC(=O)[C@H](CC(C)C)NC(=O)[C@H](CCC(N)=O)NC(=O)CNC(=O)[C@@H]1C[C@@H](O)CN1)C(=O)O [YDE-042] (H-[Hyp]GQLGL-OH)	3.98	–	–	–	–	6.30 ± 1.08	7.97 ± 1.48	–	20.72 ± 11.37
CC(C)C[C@H](NC(=O)CNC(=O)[C@H](CC(C)C)NC(=O)[C@H](CCC(N)=O)NC(=O)CNC(=O)[C@@H]1CC[C@@H](C)N1)C(=O)N[C@@H](C)C(=O)NCC(=O)N1CCC[C@H]1C(=O)N[C@@H](CCCCN)C(=O)O [YDE-045] (H-[X2]GQLGLAGPK-OH)	–	–	–	–	high cell proliferation rate	–	–	–	–
CC(C)C[C@H](NC(=O)CNC(=O)[C@H](CC(C)C)NC(=O)[C@H](CCC(N)=O)NC(=O)CNC(=O)[C@H]1C[C@H](O)CN1)C(=O)N[C@@H](C)C(=O)NCC(=O)N1CCC[C@H]1C(=O)N[C@@H](CCCCN)C(=O)O [YDE-057] (H-[dHyp]GQLGLAGPK-OH)	–	–	–	–	high cell proliferation rate	–	–	–	–
CC(C)C[C@@H](NC(=O)CNC(=O)[C@@H](CC(C)C)NC(=O)[C@@H](CCC(N)=O)NC(=O)CNC(=O)[C@H]1C[C@@H](O)CN1)C(=O)N[C@H](C)C(=O)NCC(=O)N1CCC[C@@H]1C(=O)N[C@H](CCCCN)C(=O)O [YDE-060] (H-[d(cisHyp)]G[dQ][dL]G[dL][dA]G[dP][dK]-OH)	–	–	–	–	high cell proliferation rate	–	–	–	–
